Patent publication US10723711B2, “1,1,1-trifluoro-3-hydroxypropan-2-yl carbamate derivatives and 1,1,1-trifluoro-4-hydroxybutan-2-yl carbamate derivatives as MAGL inhibitors” (PFIZER INC., priority 2015, dated 2020)
Where two headings read alike, the source gives them in different places.

Legend:
Type in all cases: biochemical
human recombinant FAAH = target: T1, human recombinant FAAH (Homo sapiens, UniProt O00519); assay: FAAH inhibition enzymatic assay, fluorescent substrate Arachidonoyl-AMC, 30 minute incubation; conditions: T = 30 min (30 minute incubation); geometric mean of 2-4 determinations unless otherwise indicated
T1 construct: purchased Cayman 10010183
T1 sequence (O00519 1-579): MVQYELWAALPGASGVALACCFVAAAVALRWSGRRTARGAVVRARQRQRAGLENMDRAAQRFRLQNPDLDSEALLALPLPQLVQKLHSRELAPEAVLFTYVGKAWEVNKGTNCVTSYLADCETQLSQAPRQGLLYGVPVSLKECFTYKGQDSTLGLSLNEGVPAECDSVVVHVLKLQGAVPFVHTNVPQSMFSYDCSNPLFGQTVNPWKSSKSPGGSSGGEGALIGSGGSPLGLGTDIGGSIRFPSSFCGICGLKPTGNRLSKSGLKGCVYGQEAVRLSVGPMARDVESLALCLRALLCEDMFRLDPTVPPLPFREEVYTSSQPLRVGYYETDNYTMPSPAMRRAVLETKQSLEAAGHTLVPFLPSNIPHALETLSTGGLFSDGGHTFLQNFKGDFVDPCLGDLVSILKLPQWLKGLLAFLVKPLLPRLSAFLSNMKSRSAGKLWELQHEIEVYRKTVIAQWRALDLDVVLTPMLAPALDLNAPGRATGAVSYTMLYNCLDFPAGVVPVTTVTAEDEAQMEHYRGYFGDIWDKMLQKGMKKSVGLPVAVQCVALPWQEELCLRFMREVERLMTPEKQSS
Protocol: Assessment of FAAH inhibition utilizes human recombinant FAAH and the fluorescent substrate, Arachidonoyl-AMC. 400 nL of a test compound at decreasing concentrations was spotted into a 384-well back plate (PerkinElmer, 6007279) using a Labcyte Echo, followed by addition of 10 μl of FAAH enzyme (Cayman 10010183) in assay buffer (50 mM Tris, pH 9.0, 1 mM EDTA). After a 30 minute incubation at room temperature, 10 μL of Arachidonyl-AMCA was added in assay buffer with 16% DMSO. Final concentration of FAAH enzyme was 0.0125 Units and AAMCA substrate was used at the Km of 5 μM. […] The reaction was allowed to progress for 60 minutes, after which the plate was read on a Molecular Devices FlexStation reader at an Ex/Em of 355/460. Percent inhibitions were calculated based on controls wells containing either no compound (0% inhibition) or a control compound (e.g., an FAAH inhibitor whose activity is known or was previously reported in the literature, such as one with about 100% inhibition). IC50 values were generated based on a four parameter fit model using ABASE software from IDBS.

[1] = target: T2, human recombinant Monoacylglycerol Lipase (Homo sapiens, UniProt Q99685); assay: MAGL inhibition enzymatic assay, fluorogenic substrate 7-HCA, IC50 at T=0 min or after 30 minute incubation (T=30 min); conditions: geometric mean of 2-4 determinations unless otherwise indicated
T2 sequence (Q99685 1-303): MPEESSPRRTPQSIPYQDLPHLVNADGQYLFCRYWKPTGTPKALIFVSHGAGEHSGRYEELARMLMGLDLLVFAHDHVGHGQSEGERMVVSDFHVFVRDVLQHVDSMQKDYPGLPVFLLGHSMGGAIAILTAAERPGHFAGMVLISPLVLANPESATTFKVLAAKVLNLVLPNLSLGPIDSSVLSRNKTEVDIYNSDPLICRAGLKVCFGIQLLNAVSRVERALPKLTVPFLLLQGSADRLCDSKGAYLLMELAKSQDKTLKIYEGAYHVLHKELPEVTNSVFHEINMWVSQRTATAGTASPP
Protocol: An equal volume of 7-HCA in assay buffer with 10% DMSO was added either immediately (T=0 min) or after a 30 minute incubation (T=30 min) to initiate the reaction. […] After these dilutions, the final concentration of the test compound ranged from 3 μM to 0.03 nM. […] IC50 values were generated based on a four parameter fit model using ABASE software from IDBS.

[2] = target: T2, human recombinant Monoacylglycerol Lipase; assay: MAGL inactivation, enzyme progress curves, kinact/KI; conditions: from enzyme progress curves, T = 0 min protocol; geometric mean of 2-4 determinations unless otherwise indicated
How it was run: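 Human recombinant MAGL ([…]) with compound, 7-HCA substrate (final 5 μM) added immediately (T=0 min), in pH 7.4 HEPES buffer with 0.1% Triton X-100 and 25% glycerin. Fluorescence (Ex/Em 340/465) was read every minute over 60 min, giving progress curves at decreasing compound concentrations (final 3 μM to 0.03 nM).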

[3] = T = 0 min (substrate added immediately), read-out: MAGL (T = 0 min) IC50
[4] = T = 30 min (30 minute incubation), read-out: MAGL (T = 30 min) IC50

| SMILES | IC50 (human recombinant FAAH) | IC50 [1, 3] | IC50 [1, 4] | MAGL kinact/KI [2] |
| --- | --- | --- | --- | --- |
| O=C(O[C@H](CO)C(F)(F)F)N1CCC(CNS(=O)(=O)c2ccc(F)cc2)CC1 [Example 47] | > 30000 nM | 174 nM | 17 nM | 5046 1/s per M |
| O=C(O[C@H](CO)C(F)(F)F)N1CCC(Oc2ccc(C(F)(F)F)cn2)CC1 [Example 53] | > 30000 nM | 53 nM | 6 nM | 6900 1/s per M |
| CN(CC1CCN(C(=O)O[C@H](CO)C(F)(F)F)CC1)S(=O)(=O)c1ccc(F)cc1 [Example 62] | > 30000 nM | 67 nM | 7 nM | 216 1/s per M |
| O=C(O[C@H](CO)C(F)(F)F)N1CCC(Oc2ncc(C(F)(F)F)cc2Cl)CC1 [Example 63] | 3010 nM | 7 nM | 1 nM | 7347 1/s per M |
| C#Cc1ccc(-n2ccc(C3CCN(C(=O)O[C@H](CO)C(F)(F)F)CC3)n2)cc1 [Example 80] | 7920 nM | 7 nM | 1 nM | 126124 1/s per M |
| C#Cc1ccc(-n2ccc([C@H]3[C@@H]4CN(C(=O)O[C@H](CO)C(F)(F)F)C[C@@H]43)n2)cc1 [Example 81] | 7540 nM | 8 nM | 1 nM | 45138 1/s per M |
| CCN([C@H]1COC2(CCN(C(=O)O[C@H](CO)C(F)(F)F)CC2)C1)S(=O)(=O)c1ccccc1 [Example 92, (2R)-1,1,1-Trifluoro-3-hydroxypropan-2-yl (3R)-3-[ethyl(phenylsulfonyl)amino]-1-oxa-8-azaspiro[4.5]decane-8-carboxylate] | > 30000 nM | 6 nM | 1 nM | 215500 1/s per M |
| CN([C@H]1COC2(CCN(C(=O)O[C@H](CO)C(F)(F)F)CC2)C1)S(=O)(=O)C1CC1 [Example 93, (2R)-1,1,1-Trifluoro-3-hydroxypropan-2-yl (3R)-3-[(cyclopropylsulfonyl)(methyl)amino]-1-oxa-8-azaspiro[4.5]decane-8-carboxylate] | > 30000 nM | 318 nM | 29 nM | 3282 1/s per M |
| CN([C@@H]1COC2(CCN(C(=O)O[C@H](CO)C(F)(F)F)CC2)C1)S(=O)(=O)C1CC1 [Example 94, (2R)-1,1,1-Trifluoro-3-hydroxypropan-2-yl (3S)-3-[(cyclopropylsulfonyl)(methyl)amino]-1-oxa-8-azaspiro[4.5]decane-8-carboxylate] | > 30000 nM | 316 nM | 27 nM | 3764 1/s per M |
| O=C(O[C@H](CO)C(F)(F)F)N1CCC2(CC1)CCN(C(=O)c1ccccc1F)C2 [Example 98, (2R)-1,1,1-Trifluoro-3-hydroxypropan-2-yl 2-(2-fluorobenzoyl)-2,8-diazaspiro[4.5]decane-8-carboxylate] | > 30000 nM | 71 nM | 7 nM | 4933 1/s per M |
| CN([C@H]1COC2(CCN(C(=O)O[C@H](CO)C(F)(F)F)CC2)C1)S(=O)(=O)CC1CC1 [Example 106, (2R)-1,1,1-Trifluoro-3-hydroxypropan-2-yl (3R)-3-{[(cyclopropylmethyl)sulfonyl](methyl)amino}-1-oxa-8-azaspiro[4.5]decane-8-carboxylate] | > 30000 nM | 238 nM | 20 nM | 2856 1/s per M |
| O=C(O[C@H](CO)C(F)(F)F)N1CCC2(CC1)CCN(C(=O)C1CCCC1)C2 [Example 124] | > 30000 nM | 92 nM | 10 nM | 6720 1/s per M |
| O=C(O[C@H](CO)C(F)(F)F)N1CCC2(CC1)CCN(C(=O)c1nccs1)C2 [Example 125] | > 30000 nM | 65 nM | 7 nM | 5464 1/s per M |
| O=C(O[C@H](CO)C(F)(F)F)N1CCC2(CC1)CCN(C(=O)c1ccccc1)C2 [Example 126] | > 30000 nM | 112 nM | 12 nM | 3723 1/s per M |

Continued, values first:

| IC50 (human recombinant FAAH) | IC50 [1, 3] | IC50 [1, 4] | MAGL kinact/KI [2] | SMILES |
| --- | --- | --- | --- | --- |
| > 30000 nM | 43 nM | 4 nM | 10340 1/s per M | Cc1cc(S(=O)(=O)N2CCOC3(CCN(C(=O)O[C@H](CO)C(F)(F)F)CC3)C2)ccc1F [Example 51] |
| > 30000 nM | 56 nM | 5 nM | 7262 1/s per M | O=C(O[C@H](CO)C(F)(F)F)N1CCC2(CC1)CN(S(=O)(=O)c1ccc(F)c(F)c1)CCO2 [Example 52] |
| 7870 nM | 3 nM | 0.2 nM | 430364 1/s per M | CC(C)c1cccc(S(=O)(=O)N2CCOC3(CCN(C(=O)O[C@H](CO)C(F)(F)F)CC3)C2)c1 [Example 66] |
| > 30000 nM | 56 nM | 6 nM | 16586 1/s per M | C#Cc1ccc(S(=O)(=O)N2CCOC3(CCN(C(=O)O[C@H](CO)C(F)(F)F)CC3)C2)cc1 [Example 68] |
| > 30000 nM | 5 nM | 1 nM | 96515 1/s per M | Cc1ccc(S(=O)(=O)N2CCOC3(CCN(C(=O)O[C@H](CO)C(F)(F)F)CC3)C2)cc1F [Example 73] |
| 5950 nM | 5 nM | 1 nM | 403739 1/s per M | CCc1cccc(S(=O)(=O)N2CCOC3(CCN(C(=O)O[C@H](CO)C(F)(F)F)CC3)C2)c1 [Example 77] |
| 2580 nM | 6 nM | 1 nM | 16865 1/s per M | CC(C)Oc1ccc(S(=O)(=O)N2CCOC3(CCN(C(=O)O[C@H](CO)C(F)(F)F)CC3)C2)cc1 [Example 78] |
| 10000 nM | 7 nM | 1 nM | 26513 1/s per M | C#Cc1cccc(S(=O)(=O)N2CCOC3(CCN(C(=O)O[C@H](CO)C(F)(F)F)CC3)C2)c1 [Example 79] |
| > 30000 nM | 19 nM | 2 nM | 21997^d 1/s per M | O=C(O[C@H](CO)C(F)(F)F)N1CCC2(CC1)CN(S(=O)(=O)c1cccc(Cl)c1)CCO2 [Example 83] |
| 19200 nM | 26 nM | 2 nM | 49166 1/s per M | O=C(O[C@H](CO)C(F)(F)F)N1CCC2(CC1)CN(S(=O)(=O)c1ccccc1F)CCO2 [Example 84] |
| 9760 nM | 22 nM | 2 nM | 59993 1/s per M | O=C(O[C@H](CO)C(F)(F)F)N1CCC2(CC1)CCN(S(=O)(=O)c1ccccc1)C2 [Example 105, (2R)-1,1,1-Trifluoro-3-hydroxypropan-2-yl 2-(phenylsulfonyl)-2,8-diazaspiro[4.5]decane-8-carboxylate] |
| > 30000 nM | 10 nM | 1 nM | 127771 1/s per M | CC(C)N([C@H]1COC2(CCN(C(=O)O[C@H](CO)C(F)(F)F)CC2)C1)S(=O)(=O)c1ccccc1 [Example 107] |
